# Measured values taken from PMC5458211, “Mitochondrial VDAC1-based peptides: Attacking oncogenic properties in glioblastoma” (Oncotarget, 2017).
# Non-standard residues stand in square brackets, D forms with d. Residues, ends and D or L forms follow the SMILES beside them.
# What was measured:
# [1] = system: U-87MG cells; assay: Morphological analysis of apoptosis by electron microscopy; assay type: cell-based, human; details: 6 h, serum-free medium, Suppl Fig 2C
# Procedure: Supplementary Figure 2: Mode of action of VDAC1-based peptides. […]
# detachment. SH-SY5Y cells (4×10^4/ml) were grown on cover slips, transfected with plasmid pEGFP-HK-I and after 24 h, were incubated […]
# The final DMSO concentration in control and peptide-treated cells was 0.07%. Fixed cells were stained with DAPI and visualized by confocal microscopy (Olympus 1X81). Arrows indicate cells […]
# showing diffusion of HK-I-GFP. B-C. […] B. SH-SY5Y cells were treated with the indicated […]
# Arrows and arrowheads indicate cells with membrane blebbing (early apoptotic state) and late apoptotic states, respectively. C. Morphological analysis of apoptosis by electron microscopy (EM). For transmission EM, U-87MG cells (1.6 x10^6 /ml) were incubated with the indicated concentrations of D-ΔN-Ter-Antp peptide or DMSO (0.3% final concentration) for 6 h in serum-free medium. Cells were pelleted and fixed in Karnovsky’s fixative (2% paraformaldehyde, 2.5% glutaraldehyde in 0.1 M cacodylate buffer, pH 7.4) for 10 minutes at room temperature and then in fresh fixative for 3.5 days in the cold. Following buffer rinses, the cells were incubated with 1% osmium tetroxide in 0.1 M cacodylate buffer, dehydrated in an ethanol series, incubated with epoxy propane and embedded in Araldite resin. […]
# [2] = system: U-87MG sub-cutaneous xenograft tumors; assay: Sub-cutaneous U-87MG xenograft, tumor growth; assay type: in vivo, human U-87MG in nude mice; details: s.c. U-87MG xenograft, 20 μM intra-tumoral every two days, end point, n=5
# Procedure: Figure 3 VDAC1-based peptides inhibit tumor growth, cell proliferation, and invasion in a glioblastoma xenograft mice model A. Graphical representation of the xenograft experiment protocol used. U-87MG cells (3×10^6/mouse) were inoculated into male nude mice as described in Materials and Methods available online in Supplemental information. B, C. […] The calculated average tumor volumes are presented as means ± SE (n=5) (* p≤0.05, ** p≤0.01). C. The volume of peptide-treated tumors is presented as % of control for each indicated time. Results = mean ± SE (n=5) (* p≤0.05, ** […]). […] E. Quantitative analysis of Ki-67 positive cells. Results = mean ± SE (n=5) (*** p<0.001). […]
# U-87MG glioblastoma cells (3 x10^6) were inoculated s.c. into the hind leg flanks of athymic eight-week old male nude mice (Envigo). Thirteen days post-inoculation, tumor volume was measured (100-130 mm^3) and mice were randomized into three groups (5 animals/group), treated with PBS containing 0.26% DMSO or peptide in PBS, 0.26% DMSO/20 μM every second day. […]
# (Calbiochem, UK). […] Thirteen days post-inoculation, using various primary antibodies (sources and dilutions tumor volume was measured and calculated (100-130 as detailed in supplementary Table 2), followed by mm3) and mice were randomized into three groups (5 the appropriate HRP-conjugated secondary antibodies mice/group). […]
smiles,measurement,setting,value
CC[C@@H](C)[C@@H](NC(=O)[C@@H](CCCCN)NC(=O)[C@H](NC(=O)[C@@H](CCC(N)=O)NC(=O)[C@@H](CCCNC(=N)N)NC(=O)[C@@H](CC(C)C)NC(=O)CNC(=O)[C@@H](Cc1ccccc1)NC(=O)CNC(=O)[C@@H](Cc1ccc(O)cc1)NC(=O)CNC(=O)[C@@H](CCCCN)NC(=O)[C@H](NC(=O)[C@@H](Cc1ccccc1)NC(=O)[C@H](NC(=O)[C@@H](CC(=O)O)NC(=O)[C@H](N)CCCNC(=N)N)C(C)C)[C@H](C)O)[C@H](C)CC)C(=O)N[C@H](Cc1c[nH]c2ccccc12)C(=O)N[C@H](Cc1ccccc1)C(=O)N[C@H](CCC(N)=O)C(=O)N[C@H](CC(N)=O)C(=O)N[C@H](CCCNC(=N)N)C(=O)N[C@H](CCCNC(=N)N)C(=O)N[C@H](CCSC)C(=O)N[C@H](CCCCN)C(=O)N[C@H](Cc1c[nH]c2ccccc12)C(=O)N[C@H](CCCCN)C(=O)N[C@H](CCCCN)C(=O)O [D-ΔN-Ter-Antp] (H-[dR][dD][dV][dF][dT][dK]G[dY]G[dF]G[dL][dR][dQ][dI][dK][dI][dW][dF][dQ][dN][dR][dR][dM][dK][dW][dK][dK]-OH; N-terminus and C-terminus assumed),apoptotic morphological changes (electron microscopy),[1],"condensation of nuclei, DNA fragmentation, and possible apoptotic body formation"
same,lower average tumor volume relative to PBS/DMSO,[2],about 75%
